# Values of other authors as cited in patent US6849589B2, “Cleaning composition” (3M Innovative Properties Company, priority 2001, dated 2005).
# Conditions: in water, at about 20° C.
row,water solubility,SMILES
1,about 0.1 weight percent,"CCCCCCCCO [Example 1-octanol, 1-octanol]"
2,about 0.124 weight percent,CCCCCCCCN1CCCC1=O [N-octyl pyrrolidone]
3,about 0.05 weight percent,CC(C)CC(=O)CC(C)C [di-isobutyl ketone]
4,about 0.06 weight percent,CC(C)CCCCCO [isooctyl alcohol]
